{"source": "patent US20020072051A1", "about": "“Screen for identifying inhibitors of GPI anchoring” (priority 2000, published 2002)", "key": {"GPI anchor biosynthesis": {"system": "GPI anchor biosynthesis", "assay": "in-vitro GPI anchor biosynthesis assay", "type": "biochemical", "settings": "UDP-[3H]-GlcNAc, ATP, Coenzyme A, GDP-mannose; TLC", "description": "Crude lysate from hypotonic lysing of spheroplasts as well as microsomal preparations can be used as an enzyme source for a coupled in vitro assay. Addition of UDP-[^3H]-GlcNAc, ATP, Coenzyme A and GDP-mannose provides the necessary substrates to synthesize a complete precursor from endogenous PI and fatty acid."}, "[1]": {"system": "MCD4 catalyzed step in the GPI-anchor biosynthesis pathway", "settings": "cited from earlier work"}, "Mcd4p": {"target": "T1, Mcd4p (Saccharomyces cerevisiae, UniProt P36051)", "T1 construct": "overexpressed by cloning the gene under the control of its endogenous promoter in 2 micron (multi-copy) vectors; expressed in transfected cells; host or cells: yeast (S. cerevisiae) cells carrying MCD4 on a 2 micron multi-copy vector; also the mcd4-174 mutant strain for inositol labelling", "T1 sequence (P36051 1-919)": "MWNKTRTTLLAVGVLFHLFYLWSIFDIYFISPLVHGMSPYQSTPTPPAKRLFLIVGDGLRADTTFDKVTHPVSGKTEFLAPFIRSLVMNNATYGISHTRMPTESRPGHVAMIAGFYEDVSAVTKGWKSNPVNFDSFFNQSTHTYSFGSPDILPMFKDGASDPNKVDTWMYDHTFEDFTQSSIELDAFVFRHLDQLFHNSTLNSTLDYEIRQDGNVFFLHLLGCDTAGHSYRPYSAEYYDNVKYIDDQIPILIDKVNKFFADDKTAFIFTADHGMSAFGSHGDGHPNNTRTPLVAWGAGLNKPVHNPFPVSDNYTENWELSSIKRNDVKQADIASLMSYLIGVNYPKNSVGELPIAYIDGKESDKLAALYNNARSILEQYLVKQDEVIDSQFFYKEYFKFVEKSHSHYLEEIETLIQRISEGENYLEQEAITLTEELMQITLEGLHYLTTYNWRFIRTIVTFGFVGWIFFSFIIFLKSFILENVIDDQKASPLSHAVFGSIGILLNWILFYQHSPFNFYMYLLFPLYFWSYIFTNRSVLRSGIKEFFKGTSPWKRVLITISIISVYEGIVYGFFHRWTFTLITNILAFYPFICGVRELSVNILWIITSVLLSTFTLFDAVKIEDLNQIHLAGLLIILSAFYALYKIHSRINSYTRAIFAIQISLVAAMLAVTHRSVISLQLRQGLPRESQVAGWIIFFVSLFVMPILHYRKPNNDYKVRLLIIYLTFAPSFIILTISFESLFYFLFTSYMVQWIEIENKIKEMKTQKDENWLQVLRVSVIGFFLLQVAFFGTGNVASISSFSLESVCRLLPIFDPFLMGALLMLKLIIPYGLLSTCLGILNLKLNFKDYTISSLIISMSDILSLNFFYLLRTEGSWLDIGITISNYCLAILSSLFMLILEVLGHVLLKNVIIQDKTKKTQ", "assay": "MCD4 overexpression and inositol-labeling experiments in mcd4-174", "type": "cell-based", "settings": "MCD4 overexpression; mcd4-174 mutant strain", "description": "An overexpression resistance (OER) assay was employed to determine the cellular target of compounds isolated via the primary assay. Each of the known genes in the GPI pathway were overexpressed by cloning the gene under the control of its endogenous promoter in 2 micron (multi-copy) vectors. This is a rapid and very powerful assay, but has certain limitations. For example, with a number of hits, precipitation of the compound can be observed when spotted onto plates. […] In such cases, the ability to detect increased resistance in the shoulder region is limited by the small zone size. […] Therefore, the OER assay, while very powerful and rapid, may be limiting when working with compounds that are weakly AF.\nStudies on a natural compound, CJ-19089 (also known as YW3548, a terpenoid lactone) have documented that this compound targets the MCD4 catalyzed step in the GPI-anchor biosynthesis pathway. […] This inhibitor has proven to be a very valuable tool for examining the pathway and establishing standards for chromatographic analysis. […] CJ-19089 was used as a positive control in each assay and was used in comparison to untreated samples for assay development."}, "wild type yeast strain": {"system": "wild type yeast strain", "assay": "SDS hypersensitivity assay", "type": "cell-based", "settings": "SDS in the growth media", "description": "Published data on a mcd4 mutant strain have shown that it has a number of characteristic phenotypes including increased sensitivity to SDS, an osmotic destabilizing detergent. The presence of as little as 0.004% SDS in the growth media leads to increased sensitivity of a wild type yeast strain to GPI-anchor inhibitors and thereby allows for the rapid screening of analogs. Again, this is a potentially information-rich assay but is subject to the same technical limitations discussed above for the OER assay."}, "UPR pathway": {"system": "UPR pathway", "assay": "UPRE::lacZ reporter induction screen (primary assay)", "type": "cell-based, Saccharomyces cerevisiae", "settings": "yeast cells containing 3X UPRE-CYClMINlacz, S. cerevisiae Δmdr mutant", "description": "Several UPRE::lacz reporter plasmids were constructed and used to transform a S. cerevisiae Δ mdr mutant and the transformants assessed for their ability to selectively respond to tunicamycin. The reporter sequence 3X UPRE-CYClMINlacz (FIG. 2) provided a selective, sensitive, and robust screening response to tunicamycin treatment and was selected for use in the Very High Throughput Screen (vHTS; Example 2). […] The activity of an associated β-galactosidase reporter gene thus served as an indirect signal of UPR-pathway stimulation.\nThe yeast strains were diploid Δmdr mutants of Saccharomyces cerevisiae: MMB 1663 (3XUPRE CYClMIN::lacz). Yeast glycerol stocks were prepared by culturing MMB 1663 (3XUPRE CYClMIN::lacZ) overnight to an OD 600 nm of 0.500. The culture was concentrated by centrifugation at 1000×g for 10 minutes and the pellet resuspended in fresh medium to an OD 600 nm of 1.00. An equal volume of HR Medium with 50% glycerol was added, producing a suspension of cells with an OD 600 nm of 0.500 and a final concentration of 25% glycerol. […]\n4. […] (Packard TopSeal-A Plate Tape is not required for either plate reader when volumes are ≦50 μl for 384-well or ≦200 μl for 96-well plates).\n5. After 90 minutes, β-galactosidase activity was read, using a 90 to 240 minute window. […]"}}, "data": [{"compound": "C=C1[C@@H]2C[C@@H]3[C@H](C(C)C)[C@@H](OC(=O)CC(C)(O)CC(C)CC)C[C@@]3(C)C[C@H]2/C(C)=C\\C[C@@H]2[C@@H](C)OC(=O)[C@H](O)[C@]12O", "note": "(some centres unmarked) [CJ-19089]", "values": [{"measurement": "accumulation of CJ-lipid", "setting": "GPI anchor biosynthesis", "value": "the CJ-lipid can be visualized"}, {"measurement": "incorporation of [3H]myo-inositol into proteins", "setting": "[1]", "value": "prevents the incorporation of [^3H]myo-inositol into proteins"}, {"measurement": "step of GPI anchor biosynthesis blocked", "setting": "[1]", "value": "specifically blocks the addition of the third mannose to the intermediate structure Man2-GlcN-acylPI"}, {"measurement": "toxicity", "setting": "[1]", "value": "toxic"}, {"measurement": "transport of GPI-anchored proteins to the Golgi apparatus", "setting": "[1]", "value": "prevents transport of GPI-anchored proteins to the Golgi apparatus"}, {"measurement": "cellular target", "setting": "Mcd4p", "value": "the target of this compound is Mcd4p"}]}, {"compound": "OC(Cn1cncn1)(Cn1cncn1)c1ccc(F)cc1F", "note": "[fluconazole]", "values": [{"measurement": "result on SDS plates", "setting": "wild type yeast strain", "value": "unambiguous positive result"}]}, {"compound": "tunicamycin", "values": [{"measurement": "lacZ reporter gene transcription (UPR-pathway stimulation)", "setting": "UPR pathway", "value": "over transcribed"}]}]}
